Test: recombinant UMI read abundance after kanamycin selection (control-corrected) (log10(CPM+1)); higher = more efficient recombination; extreme values may be limits of the assay; sequences stand for … in AGTGCAGAGAAAATCGGCCAGTTTTCTCTGCCTGCAGTCCGCATGCCGTGGGACCCCTTGGGTTCTAACCTGTTGCCTAGATTTATGCAGCGGACTGCCTTTCTCCCAAAGTGATAAACCGG…AGGTTGGTTTCACT; site = the 11-nt donor
Procedure, shortened: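 Under IPTG (0.07 mM) plus kanamycin, or without selection, Escherichia coli carrying a UMI-tagged donor and donor-binding-loop pair library and a target plasmid for the IS621 bridge recombinase were plated in two replicates. Recombinant UMIs were PCR-amplified across the donor–target junction and sequenced. Counts were converted to CPM, averaged over replicates, scaled by control-derived factors and reported as log10(CPM+1).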
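Also: IS621 bridge recombinase in Escherichia coli cells against a fixed T5 target plasmid.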

Row | Sequence | recombinant UMI read abundance (log10)
1 | TGTGTGACATGGACCGGTTTTCCCGGTAATCCGTATTTGTC (site TGTGTGACTGA) | 0
2 | TGTTAACCATGGACCGGTTTTCCCGGTAATCCGTATTTGCT (site TGTTAACCTAG) | 0
3 | TGTTCACCATGGACCGGTTTTCCCGGTAATCCGTATTTGTA (site TGTTCACCTTA) | 0.00651
4 | TGTTCACCATGGACCGGTTTTCCCGGTAATCCGTATTTGTA (site TGTTCCCCTTA) | 0.104
5 | TGTTCACCATGGACCGGTTTTCCCGGTAATCCGTATTTGTA (site TGTTCGCCTTA) | 0.00766
6 | TGTTCACCATGGACCGGTTTTCCCGGTAATCCGTATTTGTA (site TGTTCTCCTTA) | 0.00688
7 | TGTTCCCCATGGACCGGTTTTCCCGGTAATCCGTATTTGAA (site TGTTCCCCTTA) | 0.0134
8 | TGTTCCCCATGGACCGGTTTTCCCGGTAATCCGTATTTGAA (site TGTTCCCCTTC) | 0.011
9 | TGTTCCCCATGGACCGGTTTTCCCGGTAATCCGTATTTGAA (site TGTTCCCCTTG) | 0
10 | TGTTCCCCATGGACCGGTTTTCCCGGTAATCCGTATTTGAA (site TGTTCCCCTTT) | 0.0201
11 | TGTTCCCCATGGACCGGTTTTCCCGGTAATCCGTATTTGGA (site TGTTCCCCTTA) | 0.0182
12 | TGTTCCCCATGGACCGGTTTTCCCGGTAATCCGTATTTGGA (site TGTTCCCCTTC) | 0.128
13 | TGTTCCCCATGGACCGGTTTTCCCGGTAATCCGTATTTGGA (site TGTTCCCCTTG) | 0.00301
14 | TGTTCCCCATGGACCGGTTTTCCCGGTAATCCGTATTTGGA (site TGTTCCCCTTT) | 0.02
15 | TGTTCCCCATGGACCGGTTTTCCCGGTAATCCGTATTTGTC (site TGTTCCCCTAA) | 0.0126
16 | TGTTCCCCATGGACCGGTTTTCCCGGTAATCCGTATTTGTC (site TGTTCCCCTCA) | 0.00896
17 | TGTTCCCCATGGACCGGTTTTCCCGGTAATCCGTATTTGTC (site TGTTCCCCTGA) | 1.16
18 | TGTTCCCCATGGACCGGTTTTCCCGGTAATCCGTATTTGTC (site TGTTCCCCTTA) | 0.0152
19 | TGTTCCTCATGGACCGGTTTTCCCGGTAATCCGTATTTGTC (site TGTTCCTCTGA) | 0.553
20 | TGTTCGGCATGGACCGGTTTTCCCGGTAATCCGTATTTGAC (site TGTTCGGCTGT) | 0.323
21 | TGTTCTTCATGGACCGGTTTTCCCGGTAATCCGTATTTGCC (site TGTTCTTCTGG) | 1.21
22 | TGTTGATCATGGACCGGTTTTCCCGGTAATCCGTATTTGAG (site TGTTGATCTCT) | 1.22
23 | TGTTTGGCATGGACCGGTTTTCCCGGTAATCCGTATTTGTG (site TATTTGGCTCA) | 0.0286
24 | TGTTTGGCATGGACCGGTTTTCCCGGTAATCCGTATTTGTG (site TCTTTGGCTCA) | 0.00613
25 | TGTTTGGCATGGACCGGTTTTCCCGGTAATCCGTATTTGTG (site TGTTTGGCTCA) | 0.161
26 | TGTTTGGCATGGACCGGTTTTCCCGGTAATCCGTATTTGTG (site TTTTTGGCTCA) | 0.0036

Row | Sequence | recombinant UMI read abundance (log10)
27 | TTAAATCCATGGACCGGTTTTCCCGGTAATCCGTATTTGGT (site TTAAATCCTAC) | 0.0199
28 | TTAATACCATGGACCGGTTTTCCCGGTAATCCGTATTTGAG (site TTAATACCTCT) | 0.0468
29 | TTAATTTCATGGACCGGTTTTCCCGGTAATCCGTATTTGCA (site TTAATTTCTTG) | 0.69
30 | TTACGTCCATGGACCGGTTTTCCCGGTAATCCGTATTTGCA (site TTACGTCCTTG) | 0.977
31 | TTACTACCATGGACCGGTTTTCCCGGTAATCCGTATTTGCG (site TTACTACCTCG) | 0.0128
32 | TTAGAACCATGGACCGGTTTTCCCGGTAATCCGTATTTGCA (site TTAGAACCTTG) | 0
33 | TTAGCCGCATGGACCGGTTTTCCCGGTAATCCGTATTTGAC (site TTAGCCGCTGT) | 2.72
34 | TTAGGATCATGGACCGGTTTTCCCGGTAATCCGTATTTGAT (site TTAGGATCTAT) | 2.58
35 | TTAGTTCCATGGACCGGTTTTCCCGGTAATCCGTATTTGTT (site TTAGTTCCTAA) | 0.183
36 | TTAGTTGCATGGACCGGTTTTCCCGGTAATCCGTATTTGTG (site TTAGATGCTCA) | 0.0164
37 | TTAGTTGCATGGACCGGTTTTCCCGGTAATCCGTATTTGTG (site TTAGCTGCTCA) | 0.0133
38 | TTAGTTGCATGGACCGGTTTTCCCGGTAATCCGTATTTGTG (site TTAGGTGCTCA) | 0.0142
39 | TTAGTTGCATGGACCGGTTTTCCCGGTAATCCGTATTTGTG (site TTAGTTGCTCA) | 1.15
40 | TTATAGGCATGGACCGGTTTTCCCGGTAATCCGTATTTGGA (site TTATAGGCTTC) | 0.419
41 | TTATGAGCATGGACCGGTTTTCCCGGTAATCCGTATTTGTC (site TTATGAGCTGA) | 2.45
42 | TTATGTGCATGGACCGGTTTTCCCGGTAATCCGTATTTGCT (site TTATGTGCTAG) | 2.36
43 | TTATTACCATGGACCGGTTTTCCCGGTAATCCGTATTTGAG (site TTATTACCTCT) | 0.00691
44 | TTATTTGCATGGACCGGTTTTCCCGGTAATCCGTATTTGTA (site TTATTTGCTTA) | 0.103
45 | TTCAACTCATGGACCGGTTTTCCCGGTAATCCGTATTTGAC (site TTCAACTCTGT) | 0
46 | TTCAATTCATGGACCGGTTTTCCCGGTAATCCGTATTTGGG (site TTCAATTCTCC) | 0
47 | TTCCACCCATGGACCGGTTTTCCCGGTAATCCGTATTTGTA (site TTCCACCCTTA) | 0.00477
48 | TTCCAGGCATGGACCGGTTTTCCCGGTAATCCGTATTTGAG (site TTCCAGGCTCT) | 0.0112
49 | TTCCCGCCATGGACCGGTTTTCCCGGTAATCCGTATTTGAA (site TTCCCGCCTTT) | 0.0206
50 | TTCCCTTCATGGACCGGTTTTCCCGGTAATCCGTATTTGTA (site TTCCCTTCTTA) | 0
51 | TTCCGAACATGGACCGGTTTTCCCGGTAATCCGTATTTGGT (site TTCCGAACTAC) | 0.00692
52 | TTCCTGGCATGGACCGGTTTTCCCGGTAATCCGTATTTGAG (site TTCCTGGCTCT) | 0.00387

Source: the supplement of paper PMC11208160
